A word on the IC50: it is the point on the concentration scale where inhibition reaches its midpoint.

Experiment [1] concerns the target Met (Homo sapiens, UniProt P08581). Put plainly: Met autophosphorylation ELISA in PC-3 cells. Type of experiment: cell-based. More on the design: endogenous in cells; host or cells: PC-3 prostate cancer cells (ATCC #CRL-1435). Conditions: cellular activity, HGF-stimulated, phospho-Met ELISA, read-out: c-Met IC50. In a few lines: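 PC-3 cells serum-starved 3 h, treated 1 h with 8-point compound series (0.3% DMSO), then stimulated with 100 ng/mL human HGF for 10 min. Lysate phospho-Met (panTyr) measured by sandwich ELISA; IC50 from 4-parameter logistic fit against DMSO and reference-inhibitor controls.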
In general terms: An ELISA detects its analyte on a solid surface through an enzyme-linked reagent.

For experiment [2], the target named is T1, Human Mer (Homo sapiens, UniProt Q12866).
T1 construct: Human Mer (residues R557-E882 with H628Q and R794A, 0.7 nM); purchased Eurofins Pharma Discovery Services UK Limited (KinaseProfiler service)
T1 sequence (Q12866 557-882 limits assumed): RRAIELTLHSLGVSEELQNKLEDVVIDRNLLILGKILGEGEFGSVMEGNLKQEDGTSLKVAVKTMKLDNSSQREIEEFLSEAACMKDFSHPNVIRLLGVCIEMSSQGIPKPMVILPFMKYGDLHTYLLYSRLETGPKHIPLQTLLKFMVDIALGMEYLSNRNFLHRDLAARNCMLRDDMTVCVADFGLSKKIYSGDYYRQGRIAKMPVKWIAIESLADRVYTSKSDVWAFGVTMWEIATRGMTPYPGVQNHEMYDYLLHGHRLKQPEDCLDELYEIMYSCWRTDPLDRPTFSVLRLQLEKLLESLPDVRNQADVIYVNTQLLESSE
The experiment can be described thus: Human Mer kinase assay (33P-phosphoryl transfer radiometric, KinaseProfiler). The settings on record: biochemical activity; 10 μM ATP. How it is done: Kinase activity and compound inhibition were investigated using the ^33P-Phosphoryl transfer radiometric kinase assay, performed using the KinaseProfiler™ service of Eurofins Pharma Discovery Services UK Limited. Dose-response experiments were performed using nine compound concentrations in a 96-well microtiter plate. For each assay, all compounds were prepared to a 50× final assay concentration (50 μM) in 100% DMSO, then diluted in a half-log series, with the final top concentration at 1 μM. This working stock of the compound was added to the assay well as the first component in the reaction, followed by the remaining components as detailed in the following assay protocols below. The positive control wells (100% kinase activity) contain all components of the reaction including 2% DMSO (control for solvent effects), except the compound of interest. Blank wells contain all components of the reaction, with the reference inhibitor, staurosporine. This reference compound was used to abolish kinase activity and generated the 0% kinase activity base-line. IC50 values were calculated by nonlinear regression analysis using the sigmoidal dose-response (variable slope) curve fit on XLFit version 5.3 (ID Business Solutions).
Human Mer (residues R557-E882 with H628Q and R794A, 0.7 nM) was incubated with 8 mM MOPS pH 7.0, 0.2 mM EDTA, 30 mM NaCl, 250 μM GGMEDIYFEFMGGKKK, 10 mM magnesium acetate and 10 μM [y-^33P-ATP]. The reaction was initiated by the addition of the Mg/ATP mix. After incubation for 40 minutes at room temperature, the reaction was stopped by the addition of phosphoric acid to a concentration of 0.5%. A reaction aliquot of 10 μL was then spotted onto a P30 filtermat and washed four times for 4 minutes in 0.425% phosphoric acid and once in methanol prior to drying and scintillation counting. Incorporated ^33P was measured using the Wallac Microbeta scintillation counter (Perkin Elmer).

Chain of Met (P08581 25-1390): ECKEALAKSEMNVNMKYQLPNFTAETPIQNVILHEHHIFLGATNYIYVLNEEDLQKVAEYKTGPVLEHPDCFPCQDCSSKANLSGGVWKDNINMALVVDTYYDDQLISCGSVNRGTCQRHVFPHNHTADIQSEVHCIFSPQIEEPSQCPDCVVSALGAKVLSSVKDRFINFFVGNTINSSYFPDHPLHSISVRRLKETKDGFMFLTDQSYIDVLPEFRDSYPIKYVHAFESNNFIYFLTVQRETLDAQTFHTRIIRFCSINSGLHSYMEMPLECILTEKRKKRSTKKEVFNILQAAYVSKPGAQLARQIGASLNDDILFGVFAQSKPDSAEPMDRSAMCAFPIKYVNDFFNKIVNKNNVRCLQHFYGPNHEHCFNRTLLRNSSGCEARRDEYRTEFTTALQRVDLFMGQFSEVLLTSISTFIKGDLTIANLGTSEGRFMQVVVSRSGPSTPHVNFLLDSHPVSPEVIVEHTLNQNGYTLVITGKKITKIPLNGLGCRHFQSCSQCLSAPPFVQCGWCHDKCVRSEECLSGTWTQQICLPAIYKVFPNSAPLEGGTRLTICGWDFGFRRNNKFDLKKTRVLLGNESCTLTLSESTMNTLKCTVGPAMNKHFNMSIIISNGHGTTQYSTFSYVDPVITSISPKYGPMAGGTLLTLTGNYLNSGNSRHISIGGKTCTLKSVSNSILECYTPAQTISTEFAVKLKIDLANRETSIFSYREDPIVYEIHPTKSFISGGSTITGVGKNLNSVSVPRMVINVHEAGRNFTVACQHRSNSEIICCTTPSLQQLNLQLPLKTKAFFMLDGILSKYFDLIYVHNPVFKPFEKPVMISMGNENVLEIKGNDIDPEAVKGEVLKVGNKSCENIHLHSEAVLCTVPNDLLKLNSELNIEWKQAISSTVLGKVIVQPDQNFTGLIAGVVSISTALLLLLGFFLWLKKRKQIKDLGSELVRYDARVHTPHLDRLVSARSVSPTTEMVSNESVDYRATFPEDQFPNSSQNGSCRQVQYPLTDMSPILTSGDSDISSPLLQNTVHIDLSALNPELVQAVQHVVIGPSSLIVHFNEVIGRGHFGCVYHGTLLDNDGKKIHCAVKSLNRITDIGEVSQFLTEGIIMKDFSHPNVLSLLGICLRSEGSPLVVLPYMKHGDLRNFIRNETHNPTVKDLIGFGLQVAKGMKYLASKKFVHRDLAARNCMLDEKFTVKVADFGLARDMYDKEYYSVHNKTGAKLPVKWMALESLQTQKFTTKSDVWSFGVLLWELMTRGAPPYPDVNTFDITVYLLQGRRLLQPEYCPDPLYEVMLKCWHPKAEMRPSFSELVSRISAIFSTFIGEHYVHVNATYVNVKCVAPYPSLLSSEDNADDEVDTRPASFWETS

For the compound `O=C(Nc1ccc(F)cc1)C1(C(=O)Nc2ccc(Oc3ccnc4cc(-c5ccccn5)ccc34)cc2)CC1` [Compound 85, 1-N′-(4-Fluorophenyl)-1-N-[4-(7-pyridin-2-ylquinolin-4-yl)oxyphenyl]cyclopropane-1,1-dicarboxamide], the IC50 in experiment [1] was 10 to 100 nM; in experiment [2], at most 10 nM.

As to `O=C(Nc1ccc(F)cc1)C1(C(=O)Nc2ccc(Oc3ccnc4cc(-c5cnc[nH]5)ccc34)cc2)CC1` [Compound 72, 1-N′-(4-Fluorophenyl)-1-N-[4-[7-(1H-imidazol-5-yl)quinolin-4-yl]oxyphenyl]cyclopropane-1,1-dicarboxamide], the IC50 in experiment [1] and in experiment [2] was at most 10 nM in each case.

With `Cn1nccc1-c1ccc2c(Oc3ccc(NC(=O)C4(C(=O)Nc5ccc(F)cc5)CC4)cc3)ccnc2c1` [Compound 54, 1-N′-(4-Fluorophenyl)-1-N-[4-[7-(2-methylpyrazol-3-yl)quinolin-4-yl]oxyphenyl]cyclopropane-1,1-dicarboxamide], the half-inhibitory concentration (IC50) in experiment [1] was 10 to 100 nM; in experiment [2], at most 10 nM.

On to `O=C(Nc1ccc(F)cc1)C1(C(=O)Nc2ccc(Oc3ccnc4cc(-c5cnn(CC(F)F)c5)ccc34)cc2)CC1` [Compound 15, 1-N-[4-[7-[1-(2,2-Difluoroethyl)pyrazol-4-yl]quinolin-4-yl]oxyphenyl]-1-N′-(4-fluorophenyl)cyclopropane-1,1-dicarboxamide], for which the IC50 in experiment [1] was 10 to 100 nM; in experiment [2] it was at most 10 nM.

In the case of `Cn1ccc(-c2ccc3c(Oc4ccc(NC(=O)C5(C(=O)Nc6ccc(F)cc6)CC5)cc4)ccnc3c2)n1` [Compound 17, 1-N′-(4-Fluorophenyl)-1-N-[4-[7-(1-methylpyrazol-3-yl)quinolin-4-yl]oxyphenyl]cyclopropane-1,1-dicarboxamide], the IC50 was 10 to 100 nM in experiment [1] and at most 10 nM in experiment [2].

Consider `Cn1cc(-c2ccc3c(Oc4ccc(NC(=O)C5(C(=O)Nc6ccc(F)cc6)CC5)cc4)ccnc3c2)cn1` [Compound 11, 1-N′-(4-Fluorophenyl)-1-N-[4-[7-(1-methylpyrazol-4-yl)quinolin-4-yl]oxyphenyl]cyclopropane-1,1-dicarboxamide], for which the IC50 in experiment [1] and in experiment [2] was at most 10 nM each time.

Take `O=C(Nc1ccc(F)cc1)C1(C(=O)Nc2ccc(Oc3ccnc4cc(C5CCNC5)ccc34)cc2)CC1` (stereo not shown) [Compound 83, 1-N′-(4-Fluorophenyl)-1-N-[4-(7-pyrrolidin-3-ylquinolin-4-yl)oxyphenyl]cyclopropane-1,1-dicarboxamide]: the IC50 was 10 to 100 nM in experiment [1] and at most 10 nM in experiment [2].

Regarding `O=C(Nc1ccc(F)cc1)C1(C(=O)Nc2ccc(Oc3ccnc4cc(-c5cnn(CCF)c5)ccc34)cc2)CC1` [Compound 14, 1-N-[4-[7-[1-(2-Fluoroethyl)pyrazol-4-yl]quinolin-4-yl]oxyphenyl]-1-N′-(4-fluorophenyl)cyclopropane-1,1-dicarboxamide], the IC50 in experiment [1] and in experiment [2] was at most 10 nM in each case.

For the compound `Cn1ccnc1-c1ccc2c(Oc3ccc(NC(=O)C4(C(=O)Nc5ccc(F)cc5)CC4)cc3)ccnc2c1` [Compound 75, 1-N′-(4-Fluorophenyl)-1-N-[4-[7-(1-methylimidazol-2-yl)quinolin-4-yl]oxyphenyl]cyclopropane-1,1-dicarboxamide], the figures for the IC50 in experiment [1] and in experiment [2] were 10 to 100 nM and at most 10 nM, respectively.

In the case of `O=C(Nc1ccc(F)cc1)C1(C(=O)Nc2ccc(Oc3ccnc4cc(-c5ccn(C(F)F)n5)ccc34)cc2)CC1` [Compound 84, 1-N-[4-[7-[1-(Difluoromethyl)pyrazol-3-yl]quinolin-4-yl]oxyphenyl]-1-N′-(4-fluorophenyl)cyclopropane-1,1-dicarboxamide], the IC50 in experiment [1] is 10 to 100 nM; in experiment [2], at most 10 nM.

In the case of `O=C(Nc1ccc(F)cc1)C1(C(=O)Nc2ccc(Oc3ccnc4cc(-c5cnn(C6COC6)c5)ccc34)cc2)CC1` [Compound 24, 1-N′-(4-Fluorophenyl)-1-N-[4-[7-[1-(oxetan-3-yl)pyrazol-4-yl]quinolin-4-yl]oxyphenyl]cyclopropane-1,1-dicarboxamide], the IC50 in experiment [1] and in experiment [2] was at most 10 nM each time.

With `Cn1ncc(-c2ccc3c(Oc4ccc(NC(=O)C5(C(=O)Nc6ccc(F)cc6)CC5)cc4)ccnc3c2)n1` [Compound 86, 1-N′-(4-Fluorophenyl)-1-N-[4-[7-(2-methyltriazol-4-yl)quinolin-4-yl]oxyphenyl]cyclopropane-1,1-dicarboxamide], the IC50 in experiment [1] was 10 to 100 nM; in experiment [2], at most 10 nM.

In the case of `Cc1noc(C)c1-c1ccc2c(Oc3ccc(NC(=O)C4(C(=O)Nc5ccc(F)cc5)CC4)cc3)ccnc2c1` [Compound 53, 1-N-[4-[7-(3,5-Dimethyl-1,2-oxazol-4-yl)quinolin-4-yl]oxyphenyl]-1-N′-(4-fluorophenyl)cyclopropane-1,1-dicarboxamide], the IC50 in experiment [1] fell in the range of 100 to 300 nM; in experiment [2], 10 to 100 nM.

Regarding `CC(=O)N1CCC(n2cc(-c3ccc4c(Oc5ccc(NC(=O)C6(C(=O)Nc7ccc(F)cc7)CC6)cc5)ccnc4c3)cn2)CC1` [Compound 62, 1-N-[4-[7-[1-(1-Acetylpiperidin-4-yl)pyrazol-4-yl]quinolin-4-yl]oxyphenyl]-1-N′-(4-fluorophenyl)cyclopropane-1,1-dicarboxamide], the IC50 in experiment [1] was 10 to 100 nM; in experiment [2], at most 10 nM.

`CCn1cc(-c2ccc3c(Oc4ccc(NC(=O)C5(C(=O)Nc6ccc(F)cc6)CC5)cc4)ccnc3c2)cn1` [Compound 20, 1-N-[4-[7-(1-Ethylpyrazol-4-yl)quinolin-4-yl]oxyphenyl]-1-N′-(4-fluorophenyl)cyclopropane-1,1-dicarboxamide]: the values for the IC50 in experiment [1] and in experiment [2] were 10 to 100 nM and at most 10 nM, respectively.

Take `O=C(Nc1ccc(F)cc1)C1(C(=O)Nc2ccc(Oc3ccnc4cc(-c5ccncc5)ccc34)cc2)CC1` [Compound 26, 1-N′-(4-Fluorophenyl)-1-N-[4-(7-pyridin-4-ylquinolin-4-yl)oxyphenyl]cyclopropane-1,1-dicarboxamide]: the IC50 in experiment [1] and in experiment [2] was at most 10 nM each time.

In the case of `CS(=O)(=O)n1cc(-c2ccc3c(Oc4ccc(NC(=O)C5(C(=O)Nc6ccc(F)cc6)CC5)cc4)ccnc3c2)cn1` [Compound 79, 1-N′-(4-Fluorophenyl)-1-N-[4-[7-(1-methylsulfonylpyrazol-4-yl)quinolin-4-yl]oxyphenyl]cyclopropane-1,1-dicarboxamide], the IC50 is 10 to 100 nM in experiment [1] and at most 10 nM in experiment [2].

As to `COCCn1cc(-c2ccc3c(Oc4ccc(NC(=O)C5(C(=O)Nc6ccc(F)cc6)CC5)cc4)ccnc3c2)cn1` [Compound 10, 1-N′-(4-Fluorophenyl)-1-N-[4-[7-[1-(2-methoxyethyl)pyrazol-4-yl]quinolin-4-yl]oxyphenyl]cyclopropane-1,1-dicarboxamide], the IC50 in experiment [1] is 10 to 100 nM; in experiment [2], at most 10 nM.

In the case of `C#Cc1ccc2c(Oc3ccc(NC(=O)C4(C(=O)Nc5ccc(F)cc5)CC4)cc3)ccnc2c1` [Compound 64, 1-N-[4-(7-Ethynylquinolin-4-yl)oxyphenyl]-1-N′-(4-fluorophenyl)cyclopropane-1,1-dicarboxamide], the IC50 in experiment [1] lay within 100 to 300 nM; in experiment [2] it was 10 to 100 nM.

For `O=C(Nc1ccc(F)cc1)C1(C(=O)Nc2ccc(Oc3ccnc4cc(-c5nnco5)ccc34)cc2)CC1` [Compound 73, 1-N′-(4-Fluorophenyl)-1-N-[4-[7-(1,3,4-oxadiazol-2-yl)quinolin-4-yl]oxyphenyl]cyclopropane-1,1-dicarboxamide], the values for the IC50 in experiment [1] and in experiment [2] were 10 to 100 nM and at most 10 nM, respectively.

Source of the values: patent US12503438B2, “Compounds for the treatment of kinase-dependent disorders” (Exelixis, Inc., priority 2019, dated 2025).
